According to patent US20120214874A1, “PHARMACEUTICAL FORMULATIONS AND METHODS OF USE” (Nuvo Research Inc., priority 2009, published 2012):

Experiment: pH measurement of formulations and panthenol solutions (Experiments A-C, E)
Assay type: physicochemical
Protocol: Experiment A: AMP (0.0006%) was added to NRI-ANA-14 to replicate the AMP concentration in NRI-ANA-08. After AMP addition, the pH of NRI-ANA-08 was 4.1, and the pH of NRI-ANA-14 (+0.0006% AMP) was 4.2. This supported the hypothesis.
Experiment B: AMP (0.012%) was added to NRI-ANA-14 to replicate the AMP concentration in NRI-ANA-13. After AMP addition, the pH of NRI-ANA-13 was 4.8, and the pH of NRI-ANA-14 (+0.012% AMP) was 4.8. This supported the hypothesis.
Experiment C: A modified NRI-ANA-14 formulation containing 1.3% TEC and citric acid equivalent to 0.7% TEC was prepared. A control NRI-ANA-14 formulation was subjected to a stability study according to the method set forth in Example 19. After six months at 40° C., the pH of the control NRI-ANA-14 formulation was 2.6, while the pH of the modified NRI-ANA-14 formulation was 1.6. This supported the hypothesis.
Experiment E: The pH of 10% aqueous solution of D,L- and D-panthenol were measured. The pH of 10% D,L-panthenol was 6.7, but the pH of 10% D-panthenol was 9.4. This supported the hypothesis.

Substance	pH of 10% aqueous solution
2,4-dihydroxy-N-(3-hydroxypropyl)-3,3-dimethyl-butanamide [D,L-panthenol]	6.7
(2R)-2,4- dihydroxy-N- (3- hydroxy- propyl)-2,3,3- trimethyl- butanamide [D-panthenol]	9.4
